Assay results published in patent publication US12343346B2, “Salts and solid forms of (S)-3-(4-((4-(morpholinomethyl)benzyl)oxy)-1-oxoisoindolin-2-yl)piperidine-2,6-dione and compositions comprising and methods of using the same” (Celgene Corporation, priority 2012, dated 2025).
“Also recorded” adds a separate entry of the source. Counter-ions that a name gives are not always drawn. Like-named read-outs stand apart in the source and are kept apart here.

Legend:
[1] = Stability and form transfer experiments of HCl salt forms (XRPD result); format: physicochemical
Procedure: (§1) All of the solid samples generated in the polymorph screen were analyzed by XRPD. XRPD analysis was conducted on a PANalytical Empyrean or a Thermo ARL X'TRA X-ray powder diffractometer using Cu Kα radiation at 1.54 Å.
Further form conversion experiments were performed to determine interconversion among solid forms. Form conversion was also observed during further characterization of the solid forms.

[2] = Competitive slurry / Form E and Form F transformation; format: physicochemical
[3] = Equilibration (slurry) of Form A at room temperature and 50° C., form by XRPD; format: physicochemical
Procedure: Equilibration and evaporation experiments were carried out by adding an excess of the HCl salt to up to 2 mL of a test solvent. The resulting mixture was agitated for at least 24 hours at room temperature and 50° C. separately. Upon reaching equilibrium, the saturated supernatant solution was removed, filtered using 0.45 μm PTFE filters and allowed to evaporate in an open vial under nitrogen at room temperature and 50° C., respectively. The solid resulting from the equilibration was isolated and air-dried before analysis.
as §1

[4] = Dynamic vapor sorption (DVS) moisture sorption/desorption; format: physicochemical
Procedure: Hygroscopicity was determined on a Surface Measurement Systems DVS. […] The relative humidity was increased from 0% to 90% RH at 10% RH step, then at 95% RH. The relative humidity was then decreased in a similar manner to accomplish a full adsorption/desorption cycle. For hydrated forms, the analysis started at 50% RH and increased to 90% RH at 10% RH step. The relative humidity was then decreased in a similar manner to 0% RH followed by increasing to 50% RH.

[5] = Compression test (2000-psi); format: physicochemical; conditions: 2000-psi pressure for about 1 minute
Procedure: The stability of Form A was further characterized by compression test and form transfer experiments. Upon application of 2000-psi pressure for about 1 minute, the material was still Form A (FIG. 43).

[6] = Heating of solid form followed by XRPD; format: physicochemical
Procedure: Form C was obtained from anti-solvent recrystallization in DMSO/n-BuOH, DMSO/MTBE or DMSO/BuOAc. DSC and TGA thermograms of Form C are shown in FIG. 52 and FIG. 53, respectively. The TGA weight loss of 1.6 and 15.1 wt % corresponded to broad DSC endotherm around 50° C. and endotherms around 142-146° C., respectively, and can be attributed to loss of solvent/water in Form C. The DSC thermogram with an onset temperature of 251.8° C. was due to final melt/decomposition. […] The ^1H-NMR spectrum of Form C was consistent with Compound I structure with approximately one molar equivalent (or ˜13.9 wt %) of DMSO solvent (FIG. 55). Without being limited by any particular theory, Form C is a DMSO solvate. […]

## O=C1CCC(N2Cc3c(OCc4ccc(CN5CCOCC5)cc4)cccc3C2=O)C(=O)N1 (racemic) [racemic Compound (I) hydrochloride methanol solvate]
[1]
  Form conversion upon exposure to ambient moisture: converted to racemic Compound (I) hydrochloride hydrate
[1]; listed as MeOH solvate of HCl salt of racemic Compound (I)
  Form conversion upon exposure to ambient moisture: converts to a hydrate of HCl salt of racemic Compound (I)

## Cl.O=C1CC[C@H](N2Cc3c(OCc4ccc(CN5CCOCC5)cc4)cccc3C2=O)C(=O)N1 [Form A + F]
[2]; IPA/water (50/50), 3 days at RT
  XRPD Result: Form A
[2]; IPA/water (65/35), 3 days at RT
  XRPD Result: Form A
[2]; IPA/water (80/20), 6 days at RT
  XRPD Result: Form A
[2]; IPA/water (95/5), 6 days at RT
  XRPD Result: Form A
[2]; MeOAc saturated with water, 3 days at RT
  XRPD Result: Form A
[2]; Water, 3 days at RT
  XRPD Result: Form A

## Cl.O=C1CC[C@H](N2Cc3c(OCc4ccc(CN5CCOCC5)cc4)cccc3C2=O)C(=O)N1 [Form A]
[3]; MeCN/H2O (95:5), RT
  Form by XRPD after equilibration: Form D
[3]; non-aqueous solvents, 24 h of slurry
  Form by XRPD after slurry: Form A
[2]; water and aqueous/organic (aqueous/IPA) mixtures, competitive slurry
  Relative stability of forms (in words): more stable than hydrate forms
Acetone, room temperature
  Approximate Solubility: <1000 µg/mL
CH2Cl2, room temperature
  Approximate Solubility: <1000 µg/mL
CH3CN, room temperature
  Approximate Solubility: <1000 µg/mL
CH3CN/H2O (1:1), room temperature
  Approximate Solubility: >50000 µg/mL
DMSO, room temperature
  Approximate Solubility: >50000 µg/mL
EtOAc, room temperature
  Approximate Solubility: <1000 µg/mL
EtOH, room temperature
  Approximate Solubility: ~1000 µg/mL
EtOH/H2O (1:1), room temperature
  Approximate Solubility: >50000 µg/mL
H2O, room temperature
  Approximate Solubility: >50000 µg/mL
Heptane, room temperature
  Approximate Solubility: <1000 µg/mL
IPA, room temperature
  Approximate Solubility: ~1000 µg/mL
MEK, room temperature
  Approximate Solubility: <1000 µg/mL
MTBE, room temperature
  Approximate Solubility: <1000 µg/mL
MeOAc, room temperature
  Approximate Solubility: <1000 µg/mL
MeOH, room temperature
  Approximate Solubility: ~10000 µg/mL
THF, room temperature
  Approximate Solubility: <1000 µg/mL
THF/H2O (1:1), room temperature
  Approximate Solubility: >50000 µg/mL
Toluene, room temperature
  Approximate Solubility: <1000 µg/mL
In MeCN/water (1:1), EtOH/water (1:1), THE/water (1:1), and water
  Solubility (most soluble): greater than 50 mg/mL
In MeOH
  Solubility (in words): moderate solubility
In acetone, MeCN, n-BuOH, EtOH, IPA, EtOAc, MEK, DCM, MTBE, heptane, MeOAc, toluene and THF
  Solubility (low or very low): ≤ 1000 µg/mL
n-BuOH, room temperature
  Approximate Solubility: <1000 µg/mL
[4]
  Hygroscopicity (in words, from DVS): slightly hygroscopic
  XRPD Result after DVS (adsorption/desorption cycles): remains as the Form A crystal; also recorded: no change
[4]; from 0 to 90% RH
  DVS or other comments: water uptake: 1.8 wt % water uptake
[5]
  Form after compression: remains as the Form A crystal form; also recorded: still Form A

## Cl.O=C1CC[C@H](N2Cc3c(OCc4ccc(CN5CCOCC5)cc4)cccc3C2=O)C(=O)N1 [Form B]
[1]; Exposed to ambient air, 1 week at RT
  XRPD Result: Form A
[1]; IPA, 24 h at RT
  XRPD Result: Form A
[1]
  Form conversion during exposure to ambient / ambient storage: converts to the Form A crystal form; also recorded: converted to Form A
[1]; listed as B
  Form conversion during exposure to ambient / ambient storage: Converts to Form A
[4]
  XRPD Result after DVS (adsorption/desorption cycles): Form A

## Cl.O=C1CC[C@H](N2Cc3c(OCc4ccc(CN5CCOCC5)cc4)cccc3C2=O)C(=O)N1 [Form C]
[1]
  Form conversion in IPA slurry: convert to Form A
[1]; IPA, 24 h at RT
  XRPD Result: Form A
[1]; MeOAc, 1 day at RT
  XRPD Result: Form A
[4]
  XRPD Result after DVS (adsorption/desorption cycles): Form A
[4]; higher than 70% RH in the DVS instrument
  Form conversion upon exposure to high humidity: converts to the Form A crystal form; also recorded: convert to Form A
[6]; heated to 165° C.
  XRPD pattern after heating: converts to the Form A crystal form; also recorded: consistent with Form A

## Cl.O=C1CC[C@H](N2Cc3c(OCc4ccc(CN5CCOCC5)cc4)cccc3C2=O)C(=O)N1 [Form E]
[1]
  Form conversion in IPA slurry: converted to Form A
[1]; IPA, 24 h at RT
  XRPD Result: Form A
[2]; IPA/water (40/60), Spontaneous, RT
  XRPD Result: Form F
[2]; IPA/water (60/40), Spontaneous, RT
  XRPD Result: Form F
[2]; IPA/water (80/20), Spontaneous, RT
  XRPD Result: Form F
[2]; IPA/water (90/10), Spontaneous, RT
  XRPD Result: Form F
[2]; IPA/water (95/5), Spontaneous, RT
  XRPD Result: Form F
[2]; various IPA/water mixtures
  Form conversion in IPA/water mixtures: convert to Form F
[4]
  Hygroscopicity (in words, from DVS): hygroscopic
  XRPD Result after DVS (adsorption/desorption cycles): converts to the Form F crystal form; also recorded: partially converted to Form F
[4]; during DVS experiment
  DVS or other comments: form conversion: Converts to Form F
[6]; heated to 120° C.
  XRPD pattern after heating: remains as the Form E crystal form; also recorded: consistent with Form E
[6]; heated to 190° C.
  XRPD pattern after heating: converts to an amorphous form; also recorded: amorphous pattern

## Cl.O=C1CC[C@H](N2Cc3c(OCc4ccc(CN5CCOCC5)cc4)cccc3C2=O)C(=O)N1 [Form I]
[1]; MeOAc, 1 minute at RT
  XRPD Result: Form A
[1]; listed as I
  Form conversion upon exposure to ambient humidity / ambient condition: Converts to Form A
[1]; washed with MeOAc
  XRPD pattern after washing with MeOAc: converts to the Form A crystal; also recorded: consistent with Form A

## Cl.O=C1CC[C@H](N2Cc3c(OCc4ccc(CN5CCOCC5)cc4)cccc3C2=O)C(=O)N1 [Form K]
[1]
  Form conversion upon exposure to ambient humidity / ambient condition: converts to the Form F crystal; also recorded: convert to Form F
[1]; listed as K
  Form conversion upon exposure to ambient humidity / ambient condition: Converts to Form F
